Results taken from ChEMBL document CHEMBL1125962, “A new class of leukotriene biosynthesis inhibitors: The development of ((4-(4-chlorophenyl)-1-(4-(2-quinolinylmethoxy)phenyl)butyl)thio)acetic acid, L-674,636” (Bioorg Med Chem Lett, 1991).
pIC50: −log10 of the molar value.

Columns and labels:
[1] = Inhibition of leukotriene synthesis was assessed from inhibitory activity against human PMN.; type: functional
[2] = Percentage blockade of ascaris-induced bronchoconstriction by the compound was determined at a dose of 1 mg/kg in conscious squirrel monkey; type: functional
[3] = Compound was tested for bioavailability in rats; type: ADME, organism-based; details: rat, in vivo
Rattus norvegicus [4] = species on record: Rattus norvegicus; assay: The effective dose was measured by using rat pleurisy assay.; type: functional
[5] = Compound was tested for bioavailability in squirrel monkey; type: ADME, organism-based, Saimiri sciureus; details: in vivo
Rattus norvegicus [6] = species on record: Rattus norvegicus; assay: The effective dose was measured in antigen-induced dyspnea in inbred hyperreactive rats.; type: functional

Row | pIC50 [1] | Structure (SMILES) | other results
1 | 7.52 | OC(CCCc1ccccc1)c1ccc(OCc2ccc3ccccc3n2)cc1 (stereo unspecified) | 
2 | 7.05 | CCCCCC(O)c1ccc(OCc2ccc3ccccc3n2)cc1 (stereo unspecified) | 
3 | 7.10 | O=C(O)CO/N=C(\CCCc1ccccc1)c1ccc(OCc2ccc3ccccc3n2)cc1 | 
4 | 5.74 | CCCCCC(O)c1cccc(OCc2ccc3ccccc3n2)c1 (stereo unspecified) [REV-5901] | 
5 | 8.52 | O=C(O)CSC(CCCc1ccccc1)c1ccc(OCc2ccc3ccccc3n2)cc1 (stereo unspecified) [AZD-4769] | 
6 | 8.15 | O=C(O)CSC(CCCc1ccc(Cl)cc1)c1ccc(OCc2ccc3ccccc3n2)cc1 (stereo unspecified) | Blockade [2]: 80%; bioavailability [3]: 100%; ED50 (Rattus norvegicus [4]): 1.6 mg/kg; bioavailability [5]: 93%; ED50 (Rattus norvegicus [6]): 0.035 mg/kg
